{
  "source": "ChEMBL document CHEMBL4325871",
  "about": "(Eur J Med Chem, 2019)",
  "key": {"[1]": {"target": "T1, Serine/threonine-protein kinase Chk1 (Homo sapiens) (UniProt O14757)", "T1 sequence (whole entry)": "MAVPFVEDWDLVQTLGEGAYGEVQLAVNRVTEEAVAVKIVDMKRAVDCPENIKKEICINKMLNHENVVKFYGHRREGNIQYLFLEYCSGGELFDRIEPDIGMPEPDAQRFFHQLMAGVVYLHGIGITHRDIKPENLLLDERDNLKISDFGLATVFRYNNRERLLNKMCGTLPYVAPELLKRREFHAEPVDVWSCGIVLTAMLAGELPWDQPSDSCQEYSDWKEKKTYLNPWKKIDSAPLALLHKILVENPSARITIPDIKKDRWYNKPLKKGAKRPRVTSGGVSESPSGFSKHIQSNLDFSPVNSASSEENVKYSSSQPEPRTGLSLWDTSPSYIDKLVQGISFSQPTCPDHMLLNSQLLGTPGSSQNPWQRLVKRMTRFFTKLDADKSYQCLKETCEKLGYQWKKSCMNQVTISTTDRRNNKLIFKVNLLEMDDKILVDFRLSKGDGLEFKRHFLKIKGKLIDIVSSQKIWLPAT", "assay": "Inhibition of hydroxyurea-induced CHK1 phosphorylation at S345 residue in human HCT116 cells at 20 uM treated for 8 hrs starting from 24 hrs post hydroxyurea addition by Western blot analysis", "assay_type": "cell-based"}, "[2]": {"target": "T1, Serine/threonine-protein kinase Chk1 (Homo sapiens)", "assay": "Inhibition of hydroxyurea-induced CHK1 phosphorylation at S296 residue in human HCT116 cells at 20 uM treated for 8 hrs starting from 24 hrs post hydroxyurea addition by Western blot analysis", "assay_type": "cell-based"}, "[3]": {"target": "T1, Serine/threonine-protein kinase Chk1 (Homo sapiens)", "assay": "Inhibition of CHK1 phosphorylation at S345 residue in human HCT116 cells at 20 uM after 8 hrs by Western blot analysis", "assay_type": "cell-based"}, "[4]": {"target": "Bone morphogenetic protein receptor type-2 (Homo sapiens) (UniProt Q13873)", "sequence (Q13873 whole entry)": "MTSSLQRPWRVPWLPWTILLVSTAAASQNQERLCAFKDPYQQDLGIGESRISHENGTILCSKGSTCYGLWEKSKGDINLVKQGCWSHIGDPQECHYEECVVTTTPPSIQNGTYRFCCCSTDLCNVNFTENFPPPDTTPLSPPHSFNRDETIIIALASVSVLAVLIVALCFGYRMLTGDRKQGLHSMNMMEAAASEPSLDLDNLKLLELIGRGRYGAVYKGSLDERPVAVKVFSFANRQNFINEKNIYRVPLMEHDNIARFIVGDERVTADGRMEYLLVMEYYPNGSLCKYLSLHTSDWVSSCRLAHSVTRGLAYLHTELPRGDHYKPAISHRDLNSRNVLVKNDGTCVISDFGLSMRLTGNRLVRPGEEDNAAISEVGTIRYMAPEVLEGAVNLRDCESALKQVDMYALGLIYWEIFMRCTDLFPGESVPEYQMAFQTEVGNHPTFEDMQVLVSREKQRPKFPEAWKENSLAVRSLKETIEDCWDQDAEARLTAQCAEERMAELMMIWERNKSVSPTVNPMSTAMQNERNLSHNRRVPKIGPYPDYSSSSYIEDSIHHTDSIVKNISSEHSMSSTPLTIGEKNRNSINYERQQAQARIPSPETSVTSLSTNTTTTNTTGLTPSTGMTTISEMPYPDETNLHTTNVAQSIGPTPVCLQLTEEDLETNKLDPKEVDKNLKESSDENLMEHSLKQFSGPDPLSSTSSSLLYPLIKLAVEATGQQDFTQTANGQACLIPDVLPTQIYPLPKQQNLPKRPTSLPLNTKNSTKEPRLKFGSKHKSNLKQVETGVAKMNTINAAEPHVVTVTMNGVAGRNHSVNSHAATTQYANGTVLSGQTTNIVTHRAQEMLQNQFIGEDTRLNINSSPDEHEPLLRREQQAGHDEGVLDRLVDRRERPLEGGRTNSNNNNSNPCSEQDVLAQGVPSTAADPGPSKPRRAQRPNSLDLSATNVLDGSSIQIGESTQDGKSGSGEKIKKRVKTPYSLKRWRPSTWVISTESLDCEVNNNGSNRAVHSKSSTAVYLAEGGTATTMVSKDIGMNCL", "assay": "Inhibition of human BMPR2 assessed as residual activity at 1 uM using MBP as substrate by [gamma-33P]-ATP assay relative to control"}, "[5]": {"target": "Calcium/calmodulin-dependent protein kinase type 1D (Homo sapiens) (UniProt Q8IU85)", "sequence (Q8IU85 whole entry, looked up)": "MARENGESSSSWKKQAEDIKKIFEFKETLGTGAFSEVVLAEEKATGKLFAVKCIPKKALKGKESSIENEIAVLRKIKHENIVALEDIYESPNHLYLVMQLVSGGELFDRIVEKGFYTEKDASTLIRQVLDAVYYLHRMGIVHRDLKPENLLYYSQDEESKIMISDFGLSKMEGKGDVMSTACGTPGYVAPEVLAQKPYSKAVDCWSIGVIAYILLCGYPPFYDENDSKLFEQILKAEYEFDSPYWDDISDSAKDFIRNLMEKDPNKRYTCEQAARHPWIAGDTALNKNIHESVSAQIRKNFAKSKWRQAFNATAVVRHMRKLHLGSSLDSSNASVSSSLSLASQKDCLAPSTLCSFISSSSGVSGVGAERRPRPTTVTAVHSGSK", "assay": "Inhibition of human CAMK1D assessed as residual activity at 1 uM using KKALRRQETVDAL as substrate by [gamma-33P]-ATP assay relative to control"}, "[6]": {"target": "Mitogen-activated protein kinase kinase kinase 9 (Homo sapiens) (UniProt P80192)", "assay": "Inhibition of human MLK1 assessed as residual activity at 1 uM using casein as substrate by [gamma-33P]-ATP assay relative to control"}, "[7]": {"target": "Serine/threonine-protein kinase Nek2 (Homo sapiens) (UniProt P51955)", "assay": "Inhibition of human NEK2 assessed as residual activity at 1 uM using MBP as substrate by [gamma-33P]-ATP assay relative to control"}, "[8]": {"target": "Serine/threonine-protein kinase N1 (Homo sapiens) (UniProt Q16512)", "assay": "Inhibition of human PKN1 assessed as residual activity at 1 uM using KKLNRTLSVA as substrate by [gamma-33P]-ATP assay relative to control"}, "[9]": {"target": "Serine/threonine-protein kinase Sgk1 (Homo sapiens) (UniProt O00141)", "assay": "Inhibition of human SGK1 assessed as residual activity at 1 uM using KGSGSGRPRTSSFAEG as substrate by [gamma-33P]-ATP assay relative to control"}, "[10]": {"target": "SNF-related serine/threonine-protein kinase (Homo sapiens) (UniProt Q9NRH2)", "sequence (Q9NRH2 whole entry)": "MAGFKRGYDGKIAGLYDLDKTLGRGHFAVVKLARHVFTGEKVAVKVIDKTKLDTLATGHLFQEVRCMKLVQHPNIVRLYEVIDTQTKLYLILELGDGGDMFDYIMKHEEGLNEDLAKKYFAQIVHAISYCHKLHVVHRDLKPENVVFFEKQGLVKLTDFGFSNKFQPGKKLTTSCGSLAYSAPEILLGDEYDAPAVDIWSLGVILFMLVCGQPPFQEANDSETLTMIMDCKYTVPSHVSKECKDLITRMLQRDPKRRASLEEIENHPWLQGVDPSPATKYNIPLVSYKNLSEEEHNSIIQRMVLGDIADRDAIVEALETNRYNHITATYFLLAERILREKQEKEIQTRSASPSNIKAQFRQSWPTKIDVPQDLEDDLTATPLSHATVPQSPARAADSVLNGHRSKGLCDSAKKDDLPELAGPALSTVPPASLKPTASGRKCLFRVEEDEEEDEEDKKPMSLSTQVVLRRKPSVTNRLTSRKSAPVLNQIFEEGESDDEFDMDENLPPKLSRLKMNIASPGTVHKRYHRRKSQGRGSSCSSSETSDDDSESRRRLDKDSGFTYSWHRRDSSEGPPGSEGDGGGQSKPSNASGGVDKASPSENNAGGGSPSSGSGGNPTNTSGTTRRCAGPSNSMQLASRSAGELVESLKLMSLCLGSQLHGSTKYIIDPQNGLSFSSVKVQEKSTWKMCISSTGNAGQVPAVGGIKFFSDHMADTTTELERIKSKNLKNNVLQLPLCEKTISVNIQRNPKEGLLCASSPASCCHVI", "assay": "Inhibition of human SNRK assessed as residual activity at 1 uM using MBP as substrate by [gamma-33P]-ATP assay relative to control"}, "[11]": {"target": "SRSF protein kinase 2 (Homo sapiens) (UniProt P78362)", "assay": "Inhibition of human SRPK2 assessed as residual activity at 1 uM using GRSRSRSRSR as substrate by [gamma-33P]-ATP assay relative to control"}, "[12]": {"target": "TRAF2 and NCK-interacting protein kinase (Homo sapiens) (UniProt Q9UKE5)", "assay": "Inhibition of human TNIK assessed as residual activity at 1 uM using RLGRDKYKTLRQIRQ as substrate by [gamma-33P]-ATP assay relative to control"}, "[13]": {"target": "NUAK family SNF1-like kinase 1 (Homo sapiens) (UniProt O60285)", "assay": "Inhibition of human ARK5 assessed as residual activity at 1 uM using KKKVSRSGLYRSPSMPENLNRPR as substrate by [gamma-33P]-ATP assay relative to control"}, "[14]": {"target": "Calcium/calmodulin-dependent protein kinase kinase 2 (Homo sapiens) (UniProt Q96RR4)", "assay": "Inhibition of human CAMKK2 assessed as residual activity at 1 uM using MBP as substrate by [gamma-33P]-ATP assay relative to control"}, "[15]": {"target": "Dual specificity protein kinase CLK2 (Homo sapiens) (UniProt P49760)", "sequence (P49760 whole entry, looked up)": "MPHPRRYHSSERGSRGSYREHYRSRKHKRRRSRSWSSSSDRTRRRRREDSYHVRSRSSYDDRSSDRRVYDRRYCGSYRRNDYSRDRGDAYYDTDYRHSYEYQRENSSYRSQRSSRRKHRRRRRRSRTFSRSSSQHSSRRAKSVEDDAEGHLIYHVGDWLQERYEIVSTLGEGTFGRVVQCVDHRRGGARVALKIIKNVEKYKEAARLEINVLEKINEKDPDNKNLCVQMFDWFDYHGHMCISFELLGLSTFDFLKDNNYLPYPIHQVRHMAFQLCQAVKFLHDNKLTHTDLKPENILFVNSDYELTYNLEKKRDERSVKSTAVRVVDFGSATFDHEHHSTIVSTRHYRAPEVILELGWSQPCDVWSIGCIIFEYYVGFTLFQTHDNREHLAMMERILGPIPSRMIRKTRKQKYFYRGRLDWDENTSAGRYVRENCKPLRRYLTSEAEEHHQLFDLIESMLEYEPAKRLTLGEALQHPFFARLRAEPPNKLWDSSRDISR", "assay": "Inhibition of human CLK2 assessed as residual activity at 1 uM using MBP as substrate by [gamma-33P]-ATP assay relative to control"}, "[16]": {"target": "Serine/threonine-protein kinase DCLK1 (Homo sapiens) (UniProt O15075)", "assay": "Inhibition of human DCAMKL1 assessed as residual activity at 1 uM using KKLNRTLSFAEPG as substrate by [gamma-33P]-ATP assay relative to control"}, "[17]": {"target": "Serine/threonine-protein kinase/endoribonuclease IRE1 (Homo sapiens) (UniProt O75460)", "sequence (O75460 19-977 limits assumed)": "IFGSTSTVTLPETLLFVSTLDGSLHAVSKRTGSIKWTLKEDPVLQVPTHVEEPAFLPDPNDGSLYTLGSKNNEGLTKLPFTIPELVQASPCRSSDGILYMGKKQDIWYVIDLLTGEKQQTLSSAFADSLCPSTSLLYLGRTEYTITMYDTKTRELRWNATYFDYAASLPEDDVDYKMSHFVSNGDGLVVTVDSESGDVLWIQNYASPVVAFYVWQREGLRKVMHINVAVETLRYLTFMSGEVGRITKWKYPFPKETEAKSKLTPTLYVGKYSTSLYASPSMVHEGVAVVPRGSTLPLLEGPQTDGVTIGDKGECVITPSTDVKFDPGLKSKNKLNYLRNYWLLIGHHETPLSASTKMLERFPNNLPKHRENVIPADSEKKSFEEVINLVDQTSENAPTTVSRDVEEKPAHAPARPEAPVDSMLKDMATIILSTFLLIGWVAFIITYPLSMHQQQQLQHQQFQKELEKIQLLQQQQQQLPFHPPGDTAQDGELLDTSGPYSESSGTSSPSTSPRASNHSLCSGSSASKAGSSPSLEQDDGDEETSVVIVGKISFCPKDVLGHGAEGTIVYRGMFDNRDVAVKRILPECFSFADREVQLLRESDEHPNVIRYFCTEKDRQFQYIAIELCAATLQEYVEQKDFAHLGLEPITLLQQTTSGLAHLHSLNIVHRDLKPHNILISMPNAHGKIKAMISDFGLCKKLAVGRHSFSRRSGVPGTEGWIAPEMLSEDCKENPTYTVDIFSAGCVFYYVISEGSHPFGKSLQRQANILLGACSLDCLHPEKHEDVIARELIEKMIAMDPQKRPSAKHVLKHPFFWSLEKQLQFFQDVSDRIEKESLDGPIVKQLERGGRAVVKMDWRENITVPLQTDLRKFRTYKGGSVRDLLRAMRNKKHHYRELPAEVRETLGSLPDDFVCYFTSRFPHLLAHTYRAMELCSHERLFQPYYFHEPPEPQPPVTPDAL", "assay": "Inhibition of human ERN1 assessed as residual activity at 1 uM using MBP as substrate by [gamma-33P]-ATP assay relative to control"}, "[18]": {"target": "Inhibitor of nuclear factor kappa-B kinase subunit epsilon (Homo sapiens) (UniProt Q14164)", "sequence (Q14164 whole entry)": "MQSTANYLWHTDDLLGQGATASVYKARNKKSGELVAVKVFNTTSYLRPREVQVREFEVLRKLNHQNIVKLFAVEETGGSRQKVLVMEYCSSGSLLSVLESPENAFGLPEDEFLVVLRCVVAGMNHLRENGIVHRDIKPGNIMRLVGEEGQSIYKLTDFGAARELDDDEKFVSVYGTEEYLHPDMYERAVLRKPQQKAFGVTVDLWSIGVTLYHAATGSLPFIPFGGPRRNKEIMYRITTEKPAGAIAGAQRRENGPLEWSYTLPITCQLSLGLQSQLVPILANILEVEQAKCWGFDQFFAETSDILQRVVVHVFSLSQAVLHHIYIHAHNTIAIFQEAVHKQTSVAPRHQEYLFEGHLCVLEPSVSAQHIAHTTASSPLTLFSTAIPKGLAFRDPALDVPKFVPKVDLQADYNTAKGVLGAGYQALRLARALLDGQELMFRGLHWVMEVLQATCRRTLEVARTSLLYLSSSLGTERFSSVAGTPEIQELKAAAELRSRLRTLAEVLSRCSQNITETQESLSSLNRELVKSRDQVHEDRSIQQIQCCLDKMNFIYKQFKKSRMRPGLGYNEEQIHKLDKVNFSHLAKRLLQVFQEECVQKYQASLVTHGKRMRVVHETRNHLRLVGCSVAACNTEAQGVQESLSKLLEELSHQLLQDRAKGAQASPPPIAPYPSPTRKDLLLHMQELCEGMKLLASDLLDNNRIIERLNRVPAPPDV", "assay": "Inhibition of human IKKepsilon assessed as residual activity at 1 uM using casein as substrate by [gamma-33P]-ATP assay relative to control"}, "[19]": {"target": "Serine/threonine-protein kinase MARK2 (Homo sapiens) (UniProt Q7KZI7)", "assay": "Inhibition of human MARK2 assessed as residual activity at 1 uM using KKKVSRSGLYRSPSMPENLNRPR as substrate by [gamma-33P]-ATP assay relative to control"}, "[20]": {"target": "Serine/threonine-protein kinase Nek7 (Homo sapiens, UniProt Q8TDX7)", "assay": "Inhibition of human NEK7 assessed as residual activity at 1 uM using casein as substrate by [gamma-33P]-ATP assay relative to control"}, "[21]": {"target": "Serine/threonine-protein kinase Nek8 (Homo sapiens) (UniProt Q86SG6)", "sequence (Q86SG6 whole entry)": "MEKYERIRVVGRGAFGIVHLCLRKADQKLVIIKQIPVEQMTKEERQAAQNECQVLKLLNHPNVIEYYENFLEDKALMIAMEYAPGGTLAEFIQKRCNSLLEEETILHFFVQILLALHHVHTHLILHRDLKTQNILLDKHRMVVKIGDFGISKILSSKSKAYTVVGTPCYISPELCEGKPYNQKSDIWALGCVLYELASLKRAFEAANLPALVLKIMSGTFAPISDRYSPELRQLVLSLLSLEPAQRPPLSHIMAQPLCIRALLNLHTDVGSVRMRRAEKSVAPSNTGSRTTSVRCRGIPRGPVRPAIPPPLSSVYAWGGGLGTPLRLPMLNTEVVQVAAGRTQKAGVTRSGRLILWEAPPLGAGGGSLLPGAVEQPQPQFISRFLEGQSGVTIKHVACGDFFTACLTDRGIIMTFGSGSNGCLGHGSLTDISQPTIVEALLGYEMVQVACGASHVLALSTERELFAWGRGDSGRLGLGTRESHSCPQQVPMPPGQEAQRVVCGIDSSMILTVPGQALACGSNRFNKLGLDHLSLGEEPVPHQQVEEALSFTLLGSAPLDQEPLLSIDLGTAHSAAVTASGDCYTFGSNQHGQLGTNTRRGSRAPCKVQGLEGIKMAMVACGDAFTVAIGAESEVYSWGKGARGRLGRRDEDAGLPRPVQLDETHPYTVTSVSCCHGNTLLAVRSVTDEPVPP", "assay": "Inhibition of human NEK8 assessed as residual activity at 1 uM using casein as substrate by [gamma-33P]-ATP assay relative to control"}, "[22]": {"target": "Protein kinase C delta type (Homo sapiens) (UniProt Q05655)", "assay": "Inhibition of human PKCdelta assessed as residual activity at 1 uM using ERMRPRKRQGSVRRRV as substrate by [gamma-33P]-ATP assay relative to control"}, "[23]": {"target": "Proto-oncogene tyrosine-protein kinase receptor Ret (Homo sapiens) (UniProt P07949)", "assay": "Inhibition of human RET assessed as residual activity at 1 uM using KKKVSRSGLYRSPSMPENLNRPR as substrate by [gamma-33P]-ATP assay relative to control"}, "[24]": {"target": "Serine/threonine-protein kinase tousled-like 1 (Homo sapiens) (UniProt Q9UKI8)", "assay": "Inhibition of human TLK1 assessed as residual activity at 1 uM using Histone H3 as substrate by [gamma-33P]-ATP assay relative to control"}},
  "note": "Calls of active or inactive are those of the source. The calls are words filed in the database; no cut-off is given here.",
  "data": [
    {"smiles": "C(=C\\c1ccccc1)/C[N+]12CN3CN(CN(C3)C1)C2", "values": [
      {"measurement": "inhibition", "setting": "[1]", "result": "Active"},
      {"measurement": "inhibition", "setting": "[2]", "result": "Active"},
      {"measurement": "inhibition", "setting": "[3]", "result": "inactive"},
      {"measurement": "Activity", "setting": "[4]", "result": "96.8 to 98.9", "unit": "%"},
      {"measurement": "Activity", "setting": "[5]", "result": "98.4 to 98.8", "unit": "%"},
      {"measurement": "Activity", "setting": "[6]", "result": 96.8, "unit": "%"},
      {"measurement": "Activity", "setting": "[7]", "result": 106, "unit": "%"},
      {"measurement": "Activity", "setting": "[8]", "result": "87.8 to 90.1", "unit": "%"},
      {"measurement": "Activity", "setting": "[9]", "result": "93.4 to 94.1", "unit": "%"},
      {"measurement": "Activity", "setting": "[10]", "result": "79.8 to 81", "unit": "%"},
      {"measurement": "Activity", "setting": "[11]", "result": "107 to 111", "unit": "%"},
      {"measurement": "Activity", "setting": "[12]", "result": "89.3 to 93.7", "unit": "%"}
    ]},
    {"smiles": "ClC/C=C/C[N+]12CN3CN(CN(C3)C1)C2", "values": [
      {"measurement": "Activity", "setting": "[13]", "result": "87.9 to 94.8", "unit": "%"},
      {"measurement": "Activity", "setting": "[14]", "result": "83.7 to 87.4", "unit": "%"},
      {"measurement": "Activity", "setting": "[15]", "result": "93.9 to 94.5", "unit": "%"},
      {"measurement": "Activity", "setting": "[16]", "result": "92.8 to 93.2", "unit": "%"},
      {"measurement": "Activity", "setting": "[17]", "result": "92.5 to 94.8", "unit": "%"},
      {"measurement": "Activity", "setting": "[18]", "result": "111 to 113", "unit": "%"},
      {"measurement": "Activity", "setting": "[19]", "result": 94.5, "unit": "%"},
      {"measurement": "Activity", "setting": "[20]", "result": "94.2 to 95.6", "unit": "%"},
      {"measurement": "Activity", "setting": "[21]", "result": "88.6 to 89", "unit": "%"},
      {"measurement": "Activity", "setting": "[22]", "result": "115 to 117", "unit": "%"},
      {"measurement": "Activity", "setting": "[23]", "result": "96.4 to 96.7", "unit": "%"},
      {"measurement": "Activity", "setting": "[24]", "result": "93.1 to 93.4", "unit": "%"}
    ]}
  ]
}
